Measured values from US4376116A, “Polyamine biosynthesis inhibitors” (Research Corporation, priority 1981, dated 1983).
Like-named read-outs stand apart in the source and are kept apart here.

Columns and labels:
[1] = target: T1, rat prostate spermidine synthase (Rattus norvegicus, UniProt Q99MI5); experiment: Inhibition of purified spermidine synthase from rat ventral prostate; type: biochemical
T1 construct: purified spermidine synthase obtained from the rat ventral prostate; from tissue; host or cells: rat ventral prostate
T1 sequence (Q99MI5 1-302): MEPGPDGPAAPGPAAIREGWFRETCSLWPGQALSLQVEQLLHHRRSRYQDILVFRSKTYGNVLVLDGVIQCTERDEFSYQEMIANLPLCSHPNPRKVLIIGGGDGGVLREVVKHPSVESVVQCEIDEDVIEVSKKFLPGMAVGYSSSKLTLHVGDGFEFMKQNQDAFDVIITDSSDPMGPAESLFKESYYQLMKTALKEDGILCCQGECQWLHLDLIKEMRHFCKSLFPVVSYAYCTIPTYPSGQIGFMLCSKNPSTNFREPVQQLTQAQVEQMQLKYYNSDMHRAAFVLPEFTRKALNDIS

[2] = target: T2, methylthioadenosine phosphorylase (Rattus norvegicus, UniProt A0A0G2K583); experiment: Inhibition of methylthioadenosine (MTA) phosphorylase; type: biochemical; conditions: for % Inhibition MTA Phosphorylase: methyl thioadenosine 100 μm
T2 construct: In the tests involving MTA phosphorylase, the procedure described by H. Hibasami was employed; from tissue
T2 sequence (A0A0G2K583 1-283): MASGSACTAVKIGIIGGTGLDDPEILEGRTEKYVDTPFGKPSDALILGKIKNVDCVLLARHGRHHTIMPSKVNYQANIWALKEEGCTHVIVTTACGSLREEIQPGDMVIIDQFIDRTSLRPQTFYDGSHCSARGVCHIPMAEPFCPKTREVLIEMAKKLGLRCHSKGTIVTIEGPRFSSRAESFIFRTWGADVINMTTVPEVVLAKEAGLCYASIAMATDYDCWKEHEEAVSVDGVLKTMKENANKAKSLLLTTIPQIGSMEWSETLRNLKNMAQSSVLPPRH
Text: However, they can be readily prepared by coupling 5'-deoxy-5'-chloroadenosine with an appropriate thiol compound. […] (In the tests involving MTA phosphorylase, the procedure described by H. Hibasami was employed at a methyl thioadenosine concentration of 100 μm.)

aminopropyl transferases = conditions: another study; cited from earlier work
[3] = target: T3, rat prostate spermine synthase (Rattus norvegicus, UniProt Q3MIE9); experiment: Inhibition of rat prostate spermine synthase; type: biochemical; conditions: for inhibition at 100 µM: second preparation of spermine synthase
T3 construct: with respect to rat prostate spermine synthase; from tissue; host or cells: rat prostate
T3 sequence (Q3MIE9 1-366): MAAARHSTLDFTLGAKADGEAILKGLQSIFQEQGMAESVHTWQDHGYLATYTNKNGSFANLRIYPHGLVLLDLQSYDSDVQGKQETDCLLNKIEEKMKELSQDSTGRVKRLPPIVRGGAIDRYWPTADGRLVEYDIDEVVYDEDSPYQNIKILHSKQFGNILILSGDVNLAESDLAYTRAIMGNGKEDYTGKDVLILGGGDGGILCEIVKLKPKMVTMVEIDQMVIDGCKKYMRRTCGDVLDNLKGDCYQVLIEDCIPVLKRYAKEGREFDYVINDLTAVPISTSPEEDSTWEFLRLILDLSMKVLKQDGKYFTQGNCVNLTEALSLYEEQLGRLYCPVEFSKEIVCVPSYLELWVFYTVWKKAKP
Text: This enzyme catalyzes the synthesis of spermine in the reaction of spermidine with decarboxylated S-adenosylmethionine, presumably by direct nucleophilic attack as shown by the above transition state wherein R is aminopropyl.

[4] = Solubility limiting the concentration range; type: physicochemical; conditions: concentration range limited
SAM-dependent methylases = conditions: cited from earlier work
[5] = at concentrations as high as 250 μM

Row | inhibition of spermine synthase (in words) [3] | % Inhibition Spermidine Synthase ([1]; Concentration 100, dcSAM 21 μm) [%] | % Inhibition Spermine Synthase ([3]; Concentration 100) [%] | % Inhibition Spermidine Synthase ([1]; Concentration 50, dcSAM 21 μm) [%] | % Inhibition Spermidine Synthase ([1]; Concentration 250, dcSAM 21 μm) [%] | % Inhibition MTA Phosphorylase ([2]; Concentration 250) [%] | % Inhibition Spermine Synthase ([3]; Concentration 50) [%] | % Inhibition Spermine Synthase ([3]; Concentration 250) [%] | SMILES | inhibition of spermidine synthase (in words) [1] | also measured
1 | – | – | – | – | – | – | – | – | NCCCCCC(O)CCN (stereo not drawn) [1,8-diamine-3-octanol, reference compound] | – | inhibition of spermidine synthase (in words) [1, 5]: completely inactive; inhibition of spermine synthase (in words) [3, 5]: completely inactive
2 | almost no inhibitory activity | 0 | 22 | – | – | – | – | – | CCCCCC(CC)SC[C@H]1O[C@@H](n2cnc3c(N)ncnc32)[C@H](O)[C@@H]1O (stereo partly drawn) [Compound Ib, S-adenosyl-3-thiooctane] | do not at all inhibit | % Inhibition Spermidine Synthase ([1]; Concentration 25, dcSAM 21 μm): 0%; % Inhibition MTA Phosphorylase ([2]; Concentration 100): 25%; solubility (in words) [4]: poor solubility; % Inhibition Spermine Synthase ([3]; Concentration 25): 11%
3 | only modest inhibition | 92 | 59 | 84 | 96 | 25 | 40 | 86 | C[S+](C[C@H]1O[C@@H](n2cnc3c(N)ncnc32)[C@H](O)[C@@H]1O)C(CCN)CCCCCN (stereo partly drawn) [IIc, S-Adenosyl-1,8-diamino-3-(methylthio)octane] | – | % Inhibition Spermidine Synthase ([1]; Concentration 10, dcSAM 21 μm): 32%; effect on methylthioadenosine phosphorylase (in words) [2]: neither compound Ic nor IIc has any significant effect; % Inhibition Spermine Synthase ([3]; Concentration 10): 7%; inhibition at 100 µM [3]: 28%
4 | only modest inhibition | 14 | 56 | 7 | 44 | 21 | 35 | 75 | CCCCCC(CC)[S+](C)C[C@H]1O[C@@H](n2cnc3c(N)ncnc32)[C@H](O)[C@@H]1O (stereo partly drawn) [Compound IIb, S-Adenosyl-3-methylthiooctane] | do not at all inhibit | inhibition at 100 µM [3]: 19%
5 | almost no inhibitory activity | 99 | – | 99 | – | – | – | – | NCCCCCC(CCN)SC[C@H]1O[C@@H](n2cnc3c(N)ncnc32)[C@H](O)[C@@H]1O (stereo partly drawn) [Compound Ic, S-Adenosyl-1,8-diamino-3-thiooctane] | more potent inhibitor of spermidine synthase than the fully charged methyl sulfonium salt IIc | % Inhibition Spermidine Synthase ([1]; Concentration 10, dcSAM 21 μm): 97%; % Inhibition Spermidine Synthase ([1]; Concentration 25, dcSAM 21 μm): 97%; inhibitory specificity against spermidine synthase (in words) ([1]; versus spermine synthase): unusual inhibitory specificity; effect on methylthioadenosine phosphorylase (in words) [2]: neither compound Ic nor IIc has any significant effect; % Inhibition MTA Phosphorylase ([2]; Concentration 10): 3%; % Inhibition MTA Phosphorylase ([2]; Concentration 25): 8%; % Inhibition MTA Phosphorylase ([2]; Concentration 100): 10%; % Inhibition Spermine Synthase ([3]; Concentration 25): 10%
6 | – | – | – | – | – | – | – | – | Nc1ncnc2c1ncn2[C@@H]1O[C@H](CSCC[C@H](N)C(=O)O)[C@@H](O)[C@H]1O [S-adenosyl-L-homocysteine] | – | inhibition of SAM-dependent methylases (in words) (SAM-dependent methylases; another study): non-specific inhibition; Ki versus Km of S-adenosyl-L-methionine (in words) (SAM-dependent methylases; many methylases, Cantoni et al): considerably less than the Km value for the corresponding sulfonium substrate

Row | SMILES | inhibition of spermine synthase (in words) [3] | % Inhibition Spermidine Synthase ([1]; Concentration 100, dcSAM 21 μm) [%] | % Inhibition Spermine Synthase ([3]; Concentration 100) [%] | % Inhibition Spermidine Synthase ([1]; Concentration 50, dcSAM 21 μm) [%] | % Inhibition Spermidine Synthase ([1]; Concentration 250, dcSAM 21 μm) [%] | % Inhibition MTA Phosphorylase ([2]; Concentration 250) [%] | % Inhibition Spermine Synthase ([3]; Concentration 50) [%] | % Inhibition Spermine Synthase ([3]; Concentration 250) [%] | inhibition of spermidine synthase (in words) [1] | also measured
7 | CSC[C@H]1O[C@@H](n2cnc3c(N)ncnc32)[C@H](O)[C@@H]1O [Ia, 5'-methylthioadenosine] | inhibitor of both spermidine synthase and spermine synthase | – | – | – | – | – | – | – | inhibitor of both spermidine synthase and spermine synthase | % Inhibition Spermidine Synthase ([1]; Concentration 50, dcSAM 42 μM): 61%; % Inhibition Spermidine Synthase ([1]; Concentration 100, dcSAM 42 μM): 82%; MTA Phosphorylase (substrate, in words) [2]: Substrate; inhibition of aminopropyl transferases (in words) (aminopropyl transferases): non-specific inhibition; % Inhibition Spermine Synthase ([3]; Concentration 50, dcSAM 42 μM): 80%; % Inhibition Spermine Synthase ([3]; Concentration 100, dcSAM 42 μM): 98%
8 | C[S+](C)C[C@H]1O[C@@H](n2cnc3c(N)ncnc32)[C@H](O)[C@@H]1O.[O-][Cl+3]([O-])([O-])[O-] [IIa, Dimethyl-(5'-adenosyl)sulfonium perchlorate] | shows inhibition of spermine synthase | – | – | 0 | 6 | 30 | 68 | 82 | – | –
